Test results taken from US4597901A, “β-indolylalanyl or β-indolylglycinyl vasopressin antagonists” (SmithKline Beckman Corporation, priority 1984, dated 1986).
*1 amine or outer side, *2 acyl side, *3 side chain or, on linkers, in order; H or OH if unused. Where a SMILES comes first, the peptide text is derived from it. Bridges are numbered along the chain shown (N, C = ends). [ ]: non-standard residue; d: D form. The star is where a group is joined. X1 = O=C(CC1(S[*:2])CCCCC1)[*:1]; For = O=C*

These molecules were tested against vasopressin receptors [V2 -receptors] (Sus scrofa, UniProt P32307) (assay: biochemical).
From the text: Details of the in vitro protocols are in F. L. Stassen et al., J. of Pharm. Exp. Ther. 233, 50-54 (1982) but the calculations of cyclase activity and binding potential at the receptor site are as follows:
Test Procedure for Binding Assay:
These values represent total and non-specific binding, respectively.

Sequence of vasopressin receptors [V2 -receptors] (P32307 whole entry): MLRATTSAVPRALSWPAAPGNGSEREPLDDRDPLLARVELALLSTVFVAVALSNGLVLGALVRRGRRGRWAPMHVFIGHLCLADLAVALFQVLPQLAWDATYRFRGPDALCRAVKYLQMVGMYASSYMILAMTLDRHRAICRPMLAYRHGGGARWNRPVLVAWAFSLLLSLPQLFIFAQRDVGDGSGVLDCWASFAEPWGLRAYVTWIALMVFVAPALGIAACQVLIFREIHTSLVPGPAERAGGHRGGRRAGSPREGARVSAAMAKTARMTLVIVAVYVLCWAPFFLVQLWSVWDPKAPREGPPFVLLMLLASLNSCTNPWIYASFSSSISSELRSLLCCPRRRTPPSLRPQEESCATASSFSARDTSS

SMILES	Kb [µM]
CC(C)[C@@H]1NC(=O)[C@H](Cc2ccccc2)NC(=O)[C@@H](Cc2cn(C=O)c3ccccc23)NC(=O)CC2(CCCCC2)SSC[C@@H](C(=O)N2CCC[C@H]2C(=O)N[C@@H](CCCNC(=N)N)C(=O)NCC(N)=O)NC(=O)[C@H](CC(N)=O)NC1=O [D-Trp (For), [1-(β-mercapto-β,β-cyclopentamethylenepropionic acid)-2-D-tryptophan-(N-formyl)-4-valine-8-arginine]vasopressin] ([dW](For)FVNCPRG-NH2; linker N-5 via X1)	0.078
CC(C)[C@@H]1NC(=O)[C@H](Cc2ccccc2)NC(=O)[C@H](Cc2cn(C=O)c3ccccc23)NC(=O)CC2(CCCCC2)SSC[C@@H](C(=O)N2CCC[C@H]2C(=O)N[C@@H](CCCNC(=N)N)C(=O)NCC(N)=O)NC(=O)[C@H](CC(N)=O)NC1=O [L-Trp (For)] (W(For)FVNCPRG-NH2; linker N-5 via X1)	0.84
CC(C)[C@@H]1NC(=O)[C@H](Cc2ccccc2)NC(=O)[C@H](Cc2c[nH]c3ccccc23)NC(=O)CC2(CCCCC2)SSC[C@@H](C(=O)N2CCC[C@H]2C(=O)N[C@@H](CCCNC(=N)N)C(=O)NCC(N)=O)NC(=O)[C@H](CC(N)=O)NC1=O [L-Trp] (WFVNCPRG-NH2; linker N-5 via X1)	2.1
